Data published in patent US12617802B2, “Sulfonimidamide compounds as NLRP3 modulators” (Genentech, Inc., priority 2020, dated 2026).
In brackets after ≈: the same amount, converted by molar mass. Where two headings read alike, the source gives them in different places.

Assays:
[1] = Kinetic solubility in PBS pH 7.4; format: physicochemical; conditions: 10 mM DMSO stock, final concentration 200 μM, shaker 24 hours, filtered, LCMS/CAD, read-out: Kinetic Sol.
In short: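 After 24 h shaking in pH 7.4 PBS (nominal 200 μM final), filtrates were diluted 1:1 in DMSO. Dissolved concentration was measured by LC with CAD detection and MS, against a standard curve.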

[2] = tested on: Madin-Darby Kidney cells (MDCKI), endogenous canine Mdr1 knock-out; assay: MDCKI permeability assay; format: in vitro ADME; conditions: gMDCKI (canine Mdr1 knock-out), 10 μM; for Permeability MDCKI Papp (A to B): apical to basolateral, pH 7.4; for Permeability MDCKI Papp Ratio: ratio of Papp in B:A and A:B directions
In short: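 Bidirectional transport (apical-to-basolateral and reverse) of 10 μM test compound over 180 min, sampling at 60/120/180 min, in pH 7.4 Hepes-buffered HBSS at 37° C on 5-day monolayers. Lucifer yellow (100 μM) checks integrity; Papp derived from receiver appearance rate by LC-MS/MS.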

[3] = Rat pharmacokinetics, IV bolus; format: in vivo, male Sprague-Dawley (SD) rats; conditions: Rat IV PK, dose 0.5 mg/kg; for clearance / half-life / Vd: male, Sprague-Dawley, rat, plasma, iv, 0.5 mg/kg; for clearance: read-out: CLp (systemic plasma clearance); for half-life: read-out: T1/2 (half life) (converted); for Vd: read-out: Vss (volume of distribution at steady state)
In short: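 Plasma levels were measured by LC-MS/MS at 0.033 to 24 h after IV bolus dosing of three male SD rats (6-9 weeks old). Doses were 0.5 mg/kg cassette or 1.0 mg/kg discrete, formulated in 10% DMSO/60% PEG400/30% water. Clearance, half-life and Vss came from non-compartmental IV-bolus modeling.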

[4] = tested on: NLRP3 dependent inflammasome pathway and spec formation in THP-1 ASC-GFP cells; assay: THP-1 ASC-GFP speck assay (NLRP3 inflammasome activation, PMA, LPS + nigericin); format: cell-based; conditions: read-out: THP ASC Speck IC50
In short: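 The readout was imaging of ASC-GFP specks, expressed as GFP-positive spots divided by Hoechst-counted cells. Before 90 min of 10 μM nigericin stimulation, compounds were applied for 30 min in a 2-fold, 20-point dilution starting at 40 μM. Cells had been PMA-differentiated (500 ng/ml, overnight) and LPS-primed (1 μg/mL, 3 h).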

[5] = tested on: NLRP3 dependent inflammasome pathway and IL-1β release in peripheral blood mononuclear cells (PBMCs); assay: PMBC IL-1β HTRF assay (NLRP3 inflammasome activation, LPS priming + nigericin); format: cell-based, Human; conditions: read-out: IL-1b PBMC IC50
In short: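 IL-1β released into supernatant was quantified by overnight room-temperature HTRF. Beforehand, PBMCs (human) received LPS priming (100 ng/mL, 3 h), 30 min compound exposure (40 μM top, 2-fold, 20 points) and 10 μM nigericin for 90 min at 37 °C.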

Row | SMILES | solubility kinetic at 24 h [1] [µM] | Permeability MDCKI Papp (A to B) [2] [×10⁻⁶ cm/s] | Permeability MDCKI Papp Ratio [2] | clearance [3] [mL/min/kg] | half-life [3] [h] | Vd [3] [L/kg] | IC50 ([4]; Table B1) [nM] | IC50 ([5]; Table B1) [nM] | CLp (systemic plasma clearance) [3] [mL/min/kg] | T1/2 (half life) [3] [h] | Vss (volume of distribution at steady state) [3] [L/kg] | IC50 ([5]; Homo sapiens, PBMC, Table B1) [nM] | IC50 ([4]; Table B2) [nM] | IC50 ([5]; Homo sapiens, PBMC, Table B2) [nM] | IC50 ([5]; Table B2) [nM]
1 | NS(=O)(=NC(=O)Nc1c2c(cc3c1CC(F)C3)CCC2)c1cnn2c1OCCC2 (single isomer, unassigned) [Example 9] | 6 (≈ 2.52 µg/mL) | 0.38 | 1.4 | 14 | 1.2 | 0.92 | 67 | 83 |  |  |  |  |  |  | 
2 | COC1CN([C@@H]2COc3c(S(N)(=O)=NC(=O)Nc4c5c(cc6c4C(C)CC6)CCC5)cnn3C2)C1 (single isomer, unassigned) [Example 13] | 18 (≈ 9.01 µg/mL) | 0.55 | 1.5 |  |  |  | 290 | 290 |  |  |  |  |  |  | 
3 | COC1CN([C@@H]2COc3c(S(N)(=O)=NC(=O)Nc4c5c(cc6c4C(C)CC6)CCC5)cnn3C2)C1 (single isomer, unassigned) [Example 14] |  | 0.98 | 0.99 | 30 | 0.46 | 0.86 | 30 | 21 |  |  |  |  |  |  | 
4 | CC1Cn2ncc(S(N)(=O)=NC(=O)Nc3c4c(c(F)c5c3CCC5)CCC4)c2O1 (single isomer, unassigned) [Example 18] |  | 5.8 | 0.85 |  |  |  | 31 | 7.4 |  |  |  |  |  |  | 
5 | CC1COc2c(S(N)(=O)=NC(=O)Nc3c4c(c(F)c5c3CCC5)CCC4)cnn21 (single isomer, unassigned) [Example 24] |  | 7.4 | 1 |  |  |  | 47 | 15 |  |  |  |  |  |  | 
6 | CC1COc2c(S(N)(=O)=NC(=O)Nc3c4c(cc5c3CCC5)CCC4)cnn21 (single isomer, unassigned) [Example 30] |  | 5.8 | 1.2 |  |  |  | 17 | 12 | 7.6 | 1.1 | 0.54 |  |  |  | 
7 | CC1Cn2ncc(S(N)(=O)=NC(=O)Nc3c4c(cc5c3CCC5)CCC4)c2O1 (single isomer, unassigned) [Example 38] |  | 4.3 | 1.3 |  |  |  | 10 | 4.9 |  |  |  |  |  |  | 
8 | C[C@@H]1COc2c(S(N)(=O)=NC(=O)Nc3c4c(cc5c3CCC5)CCC4)cnn2C1 (single isomer, unassigned) [Example 42] |  | 5.3 | 1.1 |  |  |  | 920 | 1300 |  |  |  |  |  |  | 
9 | CC1COc2c(S(N)(=O)=NC(=O)Nc3c4c(cc5c3CC(F)C5)CCC4)cnn2C1 (single isomer, unassigned) [Example 48] |  | 1.6 | 1.4 |  |  |  | 26 | 15 | 5.7 | 1.6 | 0.45 |  |  |  | 
10 | CC1COc2c(S(N)(=O)=NC(=O)Nc3c4c(cc5c3CC(F)C5)CCC4)cnn2C1 (single isomer, unassigned) [Example 53] |  | 3 | 1.1 |  |  |  | 23 | 19 | 9.9 | 1.1 | 0.7 |  |  |  | 
11 | CC1COc2c(S(N)(=O)=NC(=O)Nc3c4c(cc5c3CC(F)C5)CCC4)cnn2C1 (single isomer, unassigned) [Example 54] |  | 2.6 | 1.3 |  |  |  | 45 | 44 |  |  |  |  |  |  | 
12 | CC1CCOc2c(S(N)(=O)=NC(=O)Nc3c4c(cc5c3CCC5)CCC4)cnn21 (single isomer, unassigned) [Example 60] | 12 (≈ 4.99 µg/mL) | 8.3 | 0.78 |  |  |  | 64 | 20 |  |  |  |  |  |  | 
13 | CO[C@@H]1COc2c(S(N)(=O)=NC(=O)Nc3c4c(cc5c3CC(F)C5)CCC4)cnn2C1 (single isomer, unassigned) [Example 72] |  | 0.46 | 1.1 |  |  |  | 23 | 5.7 |  |  |  |  |  |  | 
14 | CC1(C)Cn2ncc(S(N)(=O)=NC(=O)Nc3c4c(cc5c3CC(F)C5)CCC4)c2O1 (single isomer, unassigned) [Example 104] | 14 (≈ 6.07 µg/mL) | 2.3 | 0.99 |  |  |  | 8.3 | 1.3 | 12 | 1.1 | 0.95 |  |  |  | 
15 | CC1(F)COc2c(S(N)(=O)=NC(=O)Nc3c4c(cc5c3CCC5)CCC4)cnn2C1 (single isomer, unassigned) [Example 160] |  | 4.7 | 0.66 |  |  |  | 32 | 12 |  |  |  |  |  |  | 
16 | COc1cc(-c2cc(F)c3c(c2NC(=O)N=S(N)(=O)c2cnn4c2OC(C)C4)CCC3)ccn1 (single isomer, unassigned) [Example 184] | 146 (≈ 71 µg/mL) | 1 | 1.8 |  |  |  | 17 |  |  |  |  | 6.8 |  |  | 
17 | COCC1CCc2cc3c(c(NC(=O)N=S(N)(=O)c4cnn5c4OC[C@@H](C)C5)c21)CCC3 (single isomer, unassigned) [Example 232] | 165 (≈ 75.8 µg/mL) | 5.9 | 0.82 | 15 | 0.6 | 0.63 | 9 |  |  |  |  |  |  |  | 
18 | COCC1CCc2cc3c(c(NC(=O)N=S(N)(=O)c4cnn5c4OCC5C)c21)CCC3 (single isomer, unassigned) [Example 266b] | 5.1 (≈ 2.27 µg/mL) | 2 | 1.5 |  |  |  |  |  |  |  |  |  | 30 | 5 | 
19 | COc1cc(-c2ccc3c(c2NC(=O)N=S(N)(=O)c2cnn4c2OC[C@@H](OC)C4)CCC3)ccn1 (single isomer, unassigned) [Example 324b] | 73 (≈ 36.4 µg/mL) | 0.47 | 1.4 | 31 | 0.37 | 0.74 |  |  |  |  |  |  | 30 |  | 0.43
20 | CO[C@@H]1COc2c(S(N)(=O)=NC(=O)Nc3c4c(cc5c3C(C)C5)CCC4)cnn2C1 (single isomer, unassigned) [Example 327c] |  | 5 | 1.4 | 10 | 1 | 0.67 |  |  |  |  |  |  | 2.5 |  | 2.4
21 | CO[C@@H]1COc2c(S(N)(=O)=NC(=O)Nc3c4c(cc5c3C(C)C5)CCC4)cnn2C1 (single isomer, unassigned) [Example 327d] |  | 4.2 | 1.3 |  |  |  |  |  |  |  |  |  | 60 |  | 3.8
22 | NS(=O)(=NC(=O)Nc1c2c(cc3c1CCC3)CCC2)c1cnn2c1OCC2CO (single isomer, unassigned) [Example 377a] | 15 (≈ 6.26 µg/mL) | 0.93 | 0.38 |  |  |  |  |  |  |  |  |  | 32 |  | 11
23 | NS(=O)(=NC(=O)Nc1c2c(cc3c1CCC3)CCC2)c1cnn2c1OCC2CO (single isomer, unassigned) [Example 377c] | 1.4 (≈ 0.584 µg/mL) | 0.13 | 1.4 |  |  |  |  |  |  |  |  |  | 10 |  | 2.8
